# Assays:
# Type in all cases: in vivo
# [1] = system: barnyardgrass (Echinochloa crus-galli); test: Test B pre-/postemergence plant response
# Procedure, shortened: (§1)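 Visual injury rating, 0 (no effect) to 100 (complete control), vs untreated controls after ~10 d greenhouse. Pre: directed soil spray after planting in loam/sand. Post: plants 2–10 cm, 1–2 leaf stage. Compound in non-phytotoxic solvent plus surfactant.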
# [2] = system: corn (Zea mays); test: Test B pre-/postemergence plant response
# Procedure, shortened: as §1
# [3] = system: giant foxtail (Setaria faberii); test: Test B pre-/postemergence plant response
# Procedure, shortened: as §1
# [4] = system: pigweed (Amaranthus retroflexus); test: Test B pre-/postemergence plant response
# Procedure, shortened: as §1
# [5] = system: wheat (Triticum aestivum); test: Test B pre-/postemergence plant response
# Procedure, shortened: as §1
# [6] = system: barnyardgrass (Echinochloa crus-galli); test: Test C flooded paddy test plant response; details: Flood, 250 g ai/ha; scale of 0 to 100 where 0 is no effect and 100 is complete control; 13 to 15 days
# Procedure, shortened: (§2)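 Plants grown to 2-leaf stage, flooded 3 cm above soil; compounds applied directly into paddy water, depth kept throughout. Visual rating versus controls after 13 to 15 days in greenhouse, 0 (no effect) to 100 (complete control).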
# [7] = system: ducksalad (Heteranthera limosa); test: Test C flooded paddy test plant response; details: Flood, 250 g ai/ha; scale of 0 to 100 where 0 is no effect and 100 is complete control; 13 to 15 days
# Procedure, shortened: as §2
# [8] = system: rice (Oryza sativa); test: Test C flooded paddy test plant response; details: Flood, 250 g ai/ha; scale of 0 to 100 where 0 is no effect and 100 is complete control; 13 to 15 days
# Procedure, shortened: as §2
# [9] = system: small-flower umbrella sedge (Cyperus difformis); test: Test C flooded paddy test plant response; details: Flood, 250 g ai/ha; scale of 0 to 100 where 0 is no effect and 100 is complete control; 13 to 15 days
# Procedure, shortened: as §2
# [10] = system: blackgrass (Alopecurus myosuroides); test: Test D pre-/postemergence plant response; details: for Plant response rating (scale 0 to 100), Blackgrass / Blackgrass plant response rating: Postemergence; for Blackgrass plant response rating / Plant response rating, Blackgrass: scale 0 to 100 (0 no effect, 100 complete control); for Plant response rating, Blackgrass: Preemergence
# Procedure, shortened: (§3)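 Plants are held in a greenhouse 13 to 15 days after spraying, then injury is rated by eye relative to controls on a 0 to 100 scale. Treatments are preemergence on freshly sown loam/sand pots or postemergence at 1- to 4-leaf stage in peat-based medium; surfactant-containing solvent formulation.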
# [11] = system: galium (catchweed bedstraw, Galium aparine); test: Test D pre-/postemergence plant response; details: for Plant response rating, Galium: Preemergence
# Procedure, shortened: as §3
# [12] = system: johnsongrass (Sorghum halepense); test: Test D pre-/postemergence plant response; details: for Plant response rating, Johnsongrass: Preemergence
# Procedure, shortened: as §3
# [13] = system: lambsquarters (Chenopodium album); test: Test D pre-/postemergence plant response; details: for Plant response rating, Lambsquarters: Preemergence
# Procedure, shortened: as §3
# [14] = system: large (Lg) crabgrass (Digitaria sanguinalis); test: Test D pre-/postemergence plant response; details: for Plant response rating (scale 0 to 100), Crabgrass, Large / Crabgrass, Large plant response rating: Postemergence; for Crabgrass, Large plant response rating / Plant response rating, Crabgrass, Large: scale 0 to 100 (0 no effect, 100 complete control); for Plant response rating, Crabgrass, Large: Preemergence
# Procedure, shortened: as §3
# [15] = system: velvetleaf (Abutilon theophrasti); test: Test D pre-/postemergence plant response; details: for Plant response rating, Velvetleaf: Preemergence
# Procedure, shortened: as §3
# [16] = system: winter wheat (Triticum aestivum); test: Test D pre-/postemergence plant response; details: for Plant response rating, Wheat: Preemergence
# Procedure, shortened: as §3
# [17] = 125 g ai/ha, postemergence, 0 to 100 scale, 0 no effect, 100 complete control
# [18] = Postemergence, 500 g ai/ha, 0 to 100 scale (0 no effect, 100 complete control)
# [19] = Preemergence, 125 g ai/ha, 0 to 100 scale (0 no effect, 100 complete control)
# [20] = Preemergence, 500 g ai/ha, 0 to 100 scale where 0 is no effect and 100 is complete control
# [21] = Postemergence, 31 g ai/ha, scale 0 to 100 (0 no effect, 100 complete control)
# [22] = 4 g ai/ha, scale 0 to 100 (0 no effect, 100 complete control)
# [23] = 8 g ai/ha, scale 0 to 100 (0 no effect, 100 complete control)
# [24] = 16 g ai/ha, scale 0 to 100 (0 no effect, 100 complete control)
# [25] = 31 g ai/ha, scale 0 to 100 (0 no effect, 100 complete control)
structure (smiles),measurement,setting,value
N#Cc1cccc(Oc2ncc(Cl)cn2)c1-c1cc(C(F)(F)F)on1 [Compound 157],"Plant response rating, Barnyardgrass",[1]; [17],20
same,"Plant response rating, Barnyardgrass",[1]; [18],60
same,Barnyardgrass plant response rating,[1]; [19],20
same,"Plant response rating, Barnyardgrass",[1]; [20],80
same,"Plant response rating, Corn",[2]; [17],0
same,"Plant response rating, Corn",[2]; [18],40
same,"Plant response rating, Foxtail, Giant",[3]; [17],70
same,"Plant response rating, Foxtail, Giant",[3]; [18],80
same,"Foxtail, Giant plant response rating",[3]; [19],80
same,"Plant response rating, Foxtail, Giant",[3]; [20],100
same,"Plant response rating, Pigweed",[4]; [17],100
same,"Plant response rating, Pigweed",[4]; [18],100
same,Pigweed plant response rating,[4]; [19],100
same,"Plant response rating, Pigweed",[4]; [20],100
same,"Plant response rating, Wheat",[5]; [17],50
same,"Plant response rating, Wheat",[5]; [18],70
same,Barnyardgrass plant response rating,[6],0
same,Ducksalad plant response rating,[7],40
same,Rice plant response rating,[8],0
same,"Sedge, Umbrella plant response rating",[9],40
same,"Plant response rating (scale 0 to 100), Blackgrass",[10]; 4 g ai/ha,0
same,"Plant response rating (scale 0 to 100), Blackgrass",[10]; 8 g ai/ha,0
same,Blackgrass plant response rating,[10]; 16 g ai/ha,5
same,Blackgrass plant response rating,[10]; 31 g ai/ha,5
same,"Plant response rating, Blackgrass",[10]; 4 g ai/ha,0
same,"Plant response rating, Blackgrass",[10]; 8 g ai/ha,0
same,"Plant response rating, Blackgrass",[10]; 16 g ai/ha,0
same,"Plant response rating, Blackgrass",[10]; 31 g ai/ha,5
same,"Plant response rating (scale 0 to 100), Galium","[11]; Postemergence, 4 g ai/ha",10
same,"Plant response rating (scale 0 to 100), Galium","[11]; Postemergence, 8 g ai/ha",50
same,Galium plant response rating,[11]; [21],70
same,"Plant response rating, Galium",[11]; [22],70
same,"Plant response rating, Galium",[11]; [23],80
same,"Plant response rating, Galium",[11]; [24],80
same,"Plant response rating, Galium",[11]; [25],85
same,"Plant response rating (scale 0 to 100), Johnsongrass","[12]; Postemergence, 4 g ai/ha",0
same,"Plant response rating (scale 0 to 100), Johnsongrass","[12]; Postemergence, 8 g ai/ha",0
same,Johnsongrass plant response rating,[12]; [21],0
same,"Plant response rating, Johnsongrass",[12]; [22],0
same,"Plant response rating, Johnsongrass",[12]; [23],0
same,"Plant response rating, Johnsongrass",[12]; [24],0
same,"Plant response rating, Johnsongrass",[12]; [25],5
same,"Plant response rating (scale 0 to 100), Lambsquarters","[13]; Postemergence, 4 g ai/ha",20
same,"Plant response rating (scale 0 to 100), Lambsquarters","[13]; Postemergence, 8 g ai/ha",25
same,Lambsquarters plant response rating,[13]; [21],55
same,"Plant response rating, Lambsquarters",[13]; [22],0
same,"Plant response rating, Lambsquarters",[13]; [23],25
same,"Plant response rating, Lambsquarters",[13]; [24],100
same,"Plant response rating, Lambsquarters",[13]; [25],100
same,"Plant response rating (scale 0 to 100), Crabgrass, Large",[14]; 4 g ai/ha,0
same,"Plant response rating (scale 0 to 100), Crabgrass, Large",[14]; 8 g ai/ha,5
same,"Crabgrass, Large plant response rating",[14]; 16 g ai/ha,5
same,"Crabgrass, Large plant response rating",[14]; 31 g ai/ha,5
same,"Plant response rating, Crabgrass, Large",[14]; 4 g ai/ha,0
same,"Plant response rating, Crabgrass, Large",[14]; 8 g ai/ha,0
same,"Plant response rating, Crabgrass, Large",[14]; 16 g ai/ha,5
same,"Plant response rating, Crabgrass, Large",[14]; 31 g ai/ha,40
same,"Plant response rating (scale 0 to 100), Velvetleaf","[15]; Postemergence, 4 g ai/ha",5
same,"Plant response rating (scale 0 to 100), Velvetleaf","[15]; Postemergence, 8 g ai/ha",5
same,Velvetleaf plant response rating,[15]; [21],40
same,"Plant response rating, Velvetleaf",[15]; [22],0
same,"Plant response rating, Velvetleaf",[15]; [23],5
same,"Plant response rating, Velvetleaf",[15]; [24],45
same,"Plant response rating, Velvetleaf",[15]; [25],75
same,"Plant response rating (scale 0 to 100), Wheat","[16]; Postemergence, 4 g ai/ha",0
same,"Plant response rating (scale 0 to 100), Wheat","[16]; Postemergence, 8 g ai/ha",0
same,Wheat plant response rating,[16]; [21],0
same,"Plant response rating, Wheat",[16]; [22],0
same,"Plant response rating, Wheat",[16]; [23],0
same,"Plant response rating, Wheat",[16]; [24],0
same,"Plant response rating, Wheat",[16]; [25],5

# Reference: patent publication US10131652B2, “Pyrimidinyloxy benzene derivatives as herbicides” (E. I. DU PONT DE NEMOURS AND COMPANY, priority 2014, dated 2018)
